Results from US20250243488A1, “METHODS OF MODULATING PROGRANULIN EXPRESSION USING ANTISENSE OLIGONUCLEOTIDES TARGETING REGULATORY RNAS” (Camp4 Therapeutics Corporation, priority 2022, published 2025).
Oligonucleotides are written 5' to 3', each unit as a sugar letter and its base; * is a phosphorothioate linkage, no mark a phosphodiester; rarer units and linkages stand in square brackets, end groups in braces. Plain capitals give the bases only. e = 2'-O-(2-methoxyethyl) (MOE); l = locked nucleic acid (LNA); [5mC] = 5-methylcytosine; d = 2'-deoxy (DNA)

What was measured:
mGrn mRNA [1] = test: In vivo mGrn mRNA in heterozygous Grn^tm1.1Far mice after ICV injection; set-up: species or system mouse
Method: (§1) Grn^tm1.1Far (B6.129S4(FVB)-Grn^tm1.1Far/Mmjax; The Jackson Laboratory, Cat. No. MMRRC Strain #036771-JAX) heterozygous mice were used to assess the efficacy of CO-3544 and CO-10691 to upregulate mGrn in vivo. These mice have deletion of exon 2-13 of the mouse Grn gene. CO-3544 and CO-10691 target mouse Grn paRNA.
(§2) Mice were injected ICV with 5 μL of artificial CSF (aCSF; vehicle control), 300 μg of ASO CO-3544, or 200 μg of ASO CO-10691, each in aCSF, at a rate of 1 μL/min. For ASO CO-3544, mice were sacrificed 4 weeks post-dose for analyses. For CO-10691, mice were sacrificed 2 and 4 weeks post-dose for analyses. Mouse brain sections were processed, and Pgrn protein and Grn mRNA quantified, as described above.

Pgrn protein = test: In vivo Pgrn protein in heterozygous Grn^tm1.1Far mice after ICV injection (ELISA); set-up: species or system mouse; details: ICV 200 μg, 2 and 4 weeks (FIG. 24)
Method: as §1, §2

mGrn mRNA [2] = test: mGrn mRNA qPCR in Neuro2a cells transfected with ASOs; assay type: cell-based, mouse; details: Neuro2a
Grn mRNA = test: In vivo Grn mRNA in brain regions of C57/BL6 mice after ASO injection into lateral ventricle; set-up: species or system mouse; details: 300 μg into right lateral ventricle, day 28, cortex, hippocampus, striatum (FIG. 16)
Method: ASO-mediated upregulation of progranulin in different brain regions in vivo was determined. ASO CO-3544 (300 μg) in PBS was injected into right lateral ventricle of 8-week-old C57/BL6 mice. A steric nontargeting control ASO (CO-1929), and vehicle (PBS) control were used as controls. Mice were sacrificed at day 28 post-injection. Tissue samples (cortex, hippocampus and striatum) were collected and processed for total RNA and protein extraction as described above. Mouse Grn mRNA quantification was performed using real time qPCR assay.

Substance	mGrn mRNA expression as compared to aCSF (mGrn mRNA [1]; Grn^tm1.1Far mice, ICV 200 μg, 2 and 4 weeks, cortex, hippocampus, striatum, cerebellum (FIGS. 23A-D))	murine Pgrn protein expression as compared to aCSF (Pgrn protein)	mGrn mRNA upregulation (mGrn mRNA [2]; dose-dependent, normalized to sNTC3 (FIG. 13))	mGRN mRNA FC (mGrn mRNA [2]; Table 14, 100 nM, 48 hours, normalized to sNTC3)	40 nM FC (mGrn mRNA) (mGrn mRNA [2]; Table 15, 40 nM, transfection)	80 nM FC (mGrn mRNA) (mGrn mRNA [2]; Table 15, 80 nM, transfection)	160 nM FC (mGrn mRNA) (mGrn mRNA [2]; Table 15, 160 nM, transfection)	Grn mRNA levels increase across different brain regions (Grn mRNA)	increase in Grn mRNA expression as compared to aCSF (mGrn mRNA [1]; heterozygous Grn^tm1.1Far mice, ICV 300 μg, 4 weeks (FIG. 22A))
CO-10691: ASO that targets mouse Grn paRNA (antisense eG*eT*lA*eG*lA*dG*dA*d[5mC]*dA*d[5mC]*d[5mC]*dT*d[5mC]*d[5mC]*d[5mC]*l[5mC]*eG*l[5mC]*eA*e[5mC])	upregulated	upregulated	–	–	–	–	–	–	–
CO-3544: ASO targeting the mouse Grn promoter (− strand); targets mouse Grn paRNA (antisense eG*eT*eT*e[5mC]*eT*e[5mC]*e[5mC]*e[5mC]*eT*eA*eG*e[5mC]*eT*eG*eT*eG*eT*eA*eG*eT)	–	–	up to 1.5 fold	1.1 FC	1.2 FC	1.3 FC	1.4 FC	greater than 1.5 fold	up to 1.5 fold
